Consider 21 compounds from US11919902B2, “Aryl-bipyridine amine derivatives as phosphatidylinositol phosphate kinase inhibitors” (HiberCell, Inc., priority 2017, dated 2024).

The target in assay [1] is T1, PIP4K2A (full length protein, SignalChem) (Homo sapiens, UniProt P48426).
T1 construct: 4 nM PIP4K2A (full length protein, SignalChem); purchased SignalChem
T1 sequence (P48426 1-406): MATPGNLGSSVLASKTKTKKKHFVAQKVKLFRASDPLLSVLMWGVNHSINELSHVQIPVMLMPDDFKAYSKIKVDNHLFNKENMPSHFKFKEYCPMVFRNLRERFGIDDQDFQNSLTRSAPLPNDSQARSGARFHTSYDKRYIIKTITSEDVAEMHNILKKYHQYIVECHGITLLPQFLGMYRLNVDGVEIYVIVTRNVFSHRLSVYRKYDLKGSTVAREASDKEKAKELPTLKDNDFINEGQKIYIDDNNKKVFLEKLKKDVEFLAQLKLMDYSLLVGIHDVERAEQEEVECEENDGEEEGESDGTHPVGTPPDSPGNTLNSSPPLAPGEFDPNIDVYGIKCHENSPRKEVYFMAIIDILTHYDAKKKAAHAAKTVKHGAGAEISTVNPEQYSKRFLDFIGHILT
Nature of the assay: Kinase Assay PIP4K2 A (Sprint); ADP-Glo biochemical assay. The following applies: Table 2; compounds listed under IC50 range headings. An outline of the steps:
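Compounds (10-point, 3-fold dilutions) were pre-incubated 15 min at RT with an enzyme/substrate mix of 4 nM full-length PIP4K2A and 100 μM PI(5)P diC8 in 20 mM MOPS pH 7.2, 25 mM MgCl2, 0.005% Tween 20. A 60 μM ATP solution was added, reaction 1 h RT; ADP read by ADP-Glo luminescence, IC50 fitted from % inhibition vs DMSO.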

The target of another assay is T2, GST tagged PIP4KtypeIIA (Homo sapiens, UniProt P48426).
T2 construct: made in house; host or cells: E. coli
T2 sequence (P48426 1-406): T1 sequence (P48426 1-406)
Nature of the assay: ADP-glo kinase assay PIP4K 2A (PIP4KtypeIIA inhibition assay). The format is biochemical. The following applies: Table 3; compounds listed under IC50 range headings; 10 uM ATP, 0.5 nM PIP4KIIA. An outline of the steps: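 E. coli-expressed GST-PIP4KtypeIIA (0.5 nM final) was preincubated 1 h at 27 °C with compound (up to 4.8 μM, 5% DMSO) in PI5P/DOPE lipid in 50 mM HEPES pH 7.3 with 10 mM MgCl2. The reaction was started with 10 μM ATP (final) and run 1 h. ADP was read by ADP-Glo luminescence via a calibration curve, and IC50 was taken from % residual activity.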
A general note: ADP-Glo turns the ADP formed in a reaction into a luminescent signal.

A further assay concerns the target T3, GST tagged PIP4KtypeIIB (Homo sapiens, UniProt P78356).
T3 construct: made in house; host or cells: E. coli
T3 sequence (P78356 1-416): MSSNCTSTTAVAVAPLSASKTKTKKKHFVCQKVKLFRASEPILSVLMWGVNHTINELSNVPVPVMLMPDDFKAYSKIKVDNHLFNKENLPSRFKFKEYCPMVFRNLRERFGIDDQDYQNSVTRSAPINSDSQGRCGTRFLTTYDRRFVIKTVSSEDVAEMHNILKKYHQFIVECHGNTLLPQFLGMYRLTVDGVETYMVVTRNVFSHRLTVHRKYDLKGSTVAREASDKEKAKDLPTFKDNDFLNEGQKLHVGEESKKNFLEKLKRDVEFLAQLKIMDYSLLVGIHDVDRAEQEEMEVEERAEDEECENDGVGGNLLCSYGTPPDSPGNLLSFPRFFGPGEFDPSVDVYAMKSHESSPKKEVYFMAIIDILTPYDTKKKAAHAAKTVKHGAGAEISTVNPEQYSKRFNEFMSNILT
Nature of the assay: Trans-FI P kinase assay PIP4K2B (PIP4KtypeIIB inhibition assay). Format: biochemical. As to conditions: Table 4; compounds listed under IC50 range headings; 100 uM GTP, 5 nM PIP4KIIB; read-out: Trans-FI P kinase assays: PIP4K2B IC50. An outline of the steps:
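Purified GST-PIP4KIIB (5 nM final), 1 h preincubation with compound at 27 C, then 2 h reaction with 100 uM GTP and 80 uM PI5P plus DOPE carrier lipid in pH 7.3 HEPES/MgCl2/Triton buffer with 5% DMSO. GDP read by Transcreener FI fluorescence against a calibration curve; IC50 from % no-inhibitor activity vs log concentration.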

In general, IC50 refers to the midpoint of a concentration-inhibition curve. As to `CN(C)C(=O)c1cnc2c(c1)c(-c1cncc(-c3ccc(N4CCCC4=O)cc3)c1)cn2C` [Example 61, N,N,1-trimethyl-3-(5-(4-(2-oxopyrrolidin-1-yl)phenyl)pyridin-3-yl)-1H-pyrrolo[2,3-b]pyridine-5-carboxamide], the 50% inhibitory concentration (IC50) in assay [1] was 5 to 100 nM; against GST tagged PIP4KtypeIIA it was 100 to 1000 nM; at GST tagged PIP4KtypeIIB it was 100 to 1000 nM.

For `CNC(=O)c1cc2c(-c3cnc(N)c(-c4ccc(N5CCCC5=O)cc4)c3)ccnc2o1` [Example 85, 4-(6-amino-5-(4-(2-oxopyrrolidin-1-yl)phenyl)pyridin-3-yl)-N-methylfuro[2,3-b]pyridine-2-carboxamide], the figures for the IC50 (in assay [1]; on GST tagged PIP4KtypeIIA; on GST tagged PIP4KtypeIIB) were 1 to 5 nM, 10 to 100 nM and 1 to 10 nM, respectively.

With `Cn1ccc(-c2cncc(-c3ccc(N4CCCC4=O)cc3)c2)cc1=O` [Example 33, 1′-methyl-5-(4-(2-oxopyrrolidin-1-yl)phenyl)-[3,4′-bipyridin]-2′(1′H)-one], the IC50 in assay [1] is below 5000 nM; against GST tagged PIP4KtypeIIA, above 5000 nM; on GST tagged PIP4KtypeIIB, above 5000 nM.

As for `O=C1CCCN1c1ccc(-c2cncc(-c3cn(Cc4ccccc4)c(=O)c4[nH]ncc34)c2)cc1` [Example 67, 6-benzyl-4-(5-(4-(2-oxopyrrolidin-1-yl)phenyl)pyridin-3-yl)-1,6-dihydro-7H-pyrazolo[3,4-c]pyridin-7-one], the IC50 lay in the range of 5 to 100 nM in assay [1], 100 to 1000 nM at GST tagged PIP4KtypeIIA and 100 to 1000 nM on GST tagged PIP4KtypeIIB.

On to `Cn1cc(-c2cncc(-c3ccc(N4CCCC4=O)cc3)c2)c2cccnc21` [Example 39, 1-(4-(5-(1-methyl-1H-pyrrolo[2,3-b]pyridin-3-yl)pyridin-3-yl)phenyl)pyrrolidin-2-one], for which the IC50 in assay [1] is 5 to 100 nM; at GST tagged PIP4KtypeIIA, 100 to 1000 nM; at GST tagged PIP4KtypeIIB, 100 to 1000 nM.

For the compound `COc1cnc2[nH]ccc2c1-c1cncc(-c2ccc(N3CCCC3=O)cc2)c1` [Example 34, 1-(4-(5-(5-methoxy-1H-pyrrolo[2,3-b]pyridin-4-yl)pyridin-3-yl)phenyl)pyrrolidin-2-one], the results for the 50% inhibitory concentration (IC50) (in assay [1]; at GST tagged PIP4KtypeIIA; at GST tagged PIP4KtypeIIB) were 5 to 100 nM, 100 to 1000 nM and 100 to 1000 nM, respectively.

With `CN(C)C(=O)c1cnc2[nH]cc(-c3cncc(-c4ccc(N5CCCC5=O)cc4)c3)c2c1` [Example 72, N,N-dimethyl-3-(5-(4-(2-oxopyrrolidin-1-yl)phenyl)pyridin-3-yl)-1H-pyrrolo[2,3-b]pyridine-5-carboxamide], the 50% inhibitory concentration (IC50) was in the range of 5 to 100 nM in assay [1], 100 to 1000 nM against GST tagged PIP4KtypeIIA and 100 to 1000 nM on GST tagged PIP4KtypeIIB.

Turning to `Cc1nc(-c2cncc(-c3ccc(N4CCCC4=O)cc3)c2)c2cn[nH]c2n1` [Example 225, 1-(4-(5-(6-methyl-2H-pyrazolo[3,4-d]pyrimidin-4-yl)pyridin-3-yl)phenyl)pyrrolidin-2-one], the IC50 (in assay [1]; on GST tagged PIP4KtypeIIA; at GST tagged PIP4KtypeIIB) was 100 to 1000 nM throughout.

For the compound `O=C(NCC1CC1)c1cc2c(-c3cncc(-c4ccc(N5CCCC5=O)cc4)c3)ccnc2o1` [Example 79, N-(cyclopropylmethyl)-4-(5-(4-(2-oxopyrrolidin-1-yl)phenyl)pyridin-3-yl)furo[2,3-b]pyridine-2-carboxamide], the IC50 in assay [1] is 5 to 100 nM; against GST tagged PIP4KtypeIIA, 10 to 100 nM; at GST tagged PIP4KtypeIIB, 10 to 100 nM.

For the compound `Cn1ncc2c(-c3cncc(-c4ccc(N5CCCC5=O)cc4)c3)ccnc21` [Example 218, 1-(4-(5-(1-methyl-1H-pyrazolo[3,4-b]pyridin-4-yl)pyridin-3-yl)phenyl)pyrrolidin-2-one], the results for the IC50 (in assay [1]; on GST tagged PIP4KtypeIIA; at GST tagged PIP4KtypeIIB) were 5 to 100 nM, 100 to 1000 nM and 100 to 1000 nM, respectively.

In the case of `COC(=O)c1cc2c(-c3cncc(-c4ccc(N5CCCC5=O)cc4C)c3)ccnc2[nH]1` [Example 171, methyl 4-(5-(2-methyl-4-(2-oxopyrrolidin-1-yl)phenyl)pyridin-3-yl)-1H-pyrrolo[2,3-b]pyridine-2-carboxylate], the results for the IC50 (in assay [1]; on GST tagged PIP4KtypeIIA; on GST tagged PIP4KtypeIIB) were 5 to 100 nM, 10 to 100 nM and 10 to 100 nM, respectively.

Turning to `Cn1cc(-c2cnc(N)nc2)c2cc(-c3cncc(-c4ccc(N5CCCC5=O)cc4)c3)cnc21` [Example 355, 1-(4-(5-(3-(2-aminopyrimidin-5-yl)-1-methyl-1H-pyrrolo[2,3-b]pyridin-5-yl)pyridin-3-yl)phenyl)pyrrolidin-2-one], the IC50 was 5 to 100 nM in assay [1], 10 to 100 nM at GST tagged PIP4KtypeIIA and 100 to 1000 nM at GST tagged PIP4KtypeIIB.

`Cn1cc(-c2cnc(N)c(-c3ccc(N4CCCC4=O)cc3)c2)c2cc(N3CCCC3=O)cnc21` [Example 91, 1-(4-(2-amino-5-(1-methyl-5-(2-oxopyrrolidin-1-yl)-1H-pyrrolo[2,3-b]pyridin-3-yl)pyridin-3-yl)phenyl)pyrrolidin-2-one]: the 50% inhibitory concentration (IC50) in assay [1] lay in the range of 5 to 100 nM; against GST tagged PIP4KtypeIIA it was 100 to 1000 nM; on GST tagged PIP4KtypeIIB, 10 to 100 nM.

With `Cc1c(-c2ccc(N3CCCC3=O)cc2)cncc1-c1ccnc2[nH]c(C(=O)N(C)C)cc12` [Example 173, N,N-dimethyl-4-(4-methyl-5-(4-(2-oxopyrrolidin-1-yl)phenyl)pyridin-3-yl)-1H-pyrrolo[2,3-b]pyridine-2-carboxamide], the IC50 in assay [1] was in the range of 5 to 100 nM; at GST tagged PIP4KtypeIIA, 100 to 1000 nM; at GST tagged PIP4KtypeIIB, 100 to 1000 nM.

For `O=C1CCCN1c1ccc(-c2cncc(-c3ncnc4n[nH]cc34)c2)cc1` [Example 223, 1-(4-(5-(2H-pyrazolo[3,4-d]pyrimidin-4-yl)pyridin-3-yl)phenyl)pyrrolidin-2-one], the IC50 (in assay [1]; at GST tagged PIP4KtypeIIA; on GST tagged PIP4KtypeIIB) was 100 to 1000 nM throughout.

For `COC(=O)c1cc2c(-c3cncc(-c4ccc(N5CCCC5=O)cc4)c3)ccnc2o1` [Example 165, methyl 4-(5-(4-(2-oxopyrrolidin-1-yl)phenyl)pyridin-3-yl)furo[2,3-b]pyridine-2-carboxylate], the values for the concentration for half-maximal inhibition (IC50) (in assay [1]; on GST tagged PIP4KtypeIIA; at GST tagged PIP4KtypeIIB) were 5 to 100 nM, 10 to 100 nM and 10 to 100 nM, respectively.

On to `Cc1ncc(-c2ccncc2)cc1-c1ccc(N2CCCC2=O)cc1` [Example 164, 1-(4-(6-methyl-3,4′-bipyridin-5-yl)phenyl)pyrrolidin-2-one], for which the IC50 in assay [1] is 2500 to 5000 nM; at GST tagged PIP4KtypeIIA it was above 5000 nM; on GST tagged PIP4KtypeIIB, 2500 to 5000 nM.

As to `CC(C)OC(=O)c1cc2c(-c3cncc(-c4ccc(N5CCCC5=O)cc4)c3)ccnc2[nH]1` [Example 161, isopropyl 4-(5-(4-(2-oxopyrrolidin-1-yl)phenyl)pyridin-3-yl)-1H-pyrrolo[2,3-b]pyridine-2-carboxylate], the IC50 fell in the range of 5 to 100 nM in assay [1], 100 to 1000 nM against GST tagged PIP4KtypeIIA and 10 to 100 nM on GST tagged PIP4KtypeIIB.

For the compound `CN(C)C(=O)c1ccc(-c2cncc(-c3ccnc4[nH]ccc34)c2)cc1` [Example 2, 4-(5-(1H-pyrrolo[2,3-b]pyridin-4-yl)pyridin-3-yl)-N,N-dimethylbenzamide], the IC50 (in assay [1]; against GST tagged PIP4KtypeIIA; on GST tagged PIP4KtypeIIB) was 100 to 1000 nM each time.

On to `CN(C)C(=O)c1ccc(-c2cncc(-c3cnc4[nH]ccc4c3)c2)cc1` [Example 4, 4-(5-(1H-pyrrolo[2,3-b]pyridin-5-yl)pyridin-3-yl)-N,N-dimethylbenzamide], for which the IC50 in assay [1] lay within 100 to 1000 nM; on GST tagged PIP4KtypeIIA, 2500 to 5000 nM; at GST tagged PIP4KtypeIIB, 2500 to 5000 nM.

In the case of `O=C1CCCN1c1ccc(-c2cncc(-c3ccnc4[nH]ccc34)c2)cc1` [Example 58, 1-(4-(5-(1H-pyrrolo[2,3-b]pyridin-4-yl)pyridin-3-yl)phenyl)pyrrolidin-2-one], the 50% inhibitory concentration (IC50) in assay [1] was 5 to 100 nM; at GST tagged PIP4KtypeIIA it was 2500 to 5000 nM; on GST tagged PIP4KtypeIIB, 100 to 1000 nM.
